Reference: patent publication US20250099494A1, “PHOSPHONIC ACID COMPOUND AND PRODRUG THEREOF, AND PREPARATION METHODS FOR AND USES OF PHOSPHONIC ACID COMPOUND AND PRODRUG THEREOF” (HAIHE BIOPHARMA CO., LTD., priority 2022, published 2025)

Experiments:
[1] = target: hENPP1-ECD-His (Homo sapiens (Human), UniProt P22413); assay: ENPP1 inhibitory activity, substrate 2',3'-cGAMP detection (AMP-Glo); conditions: read-out: c-GAMP (IC50, nM), inhibitory effect on ENPP1
[2] = Pharmacokinetic test experiment of mice; assay type: in vivo, ICR mice; conditions: after oral administration
Method: 1. In each administration mode, 9 healthy ICR mice male, weighing 30-35 g, were randomly divided into 3 groups (M1, M2, M3) with 3 mice in each group. […] Feeding uniformly 4 hours after administration.

[3] = Pharmacokinetic test experiment for rats; assay type: in vivo, SD rats; conditions: p.o. prodrug compound 7 (5 mg/kg) vs i.v. compound 1 (1 mg/kg)
Method: 1. Six SD rats of 6-8 weeks old, male, were taken in each administration mode, and the tested compound was administered by gavage (5 mg/kg) and intravenous injection (1 mg/kg), respectively: fasting for 12 hours before the experiment and drinking water freely. Feeding uniformly 4 hours after administration.
(§1) Plasma collection and processing: at the above set time points, 150-200 μL of blood was collected via the plexus jugularis or a suitable part, placed in EDTA-K2 test tube, centrifuged at 3500 rpm for 10 min, plasma was separated, and frozen at −20° C. in a refrigerator.
LC/MS/MS method was used to determine the concentration of compounds in rats plasma. The pharmacokinetic parameters after administration were calculated using a non-compartmental model using Phoenix 8.3 software (Pharsight, USA).

[4] = Pharmacokinetic test experiment for dogs; conditions: beagle dogs, p.o. prodrug compound 7 (2 mg/kg) vs i.v. compound 1 (1 mg/kg)
Method: Feeding uniformly 4 hours after administration.
as §1, with “Blood was collected continuously, with 3 animals collected at each time point. Plasma” for “Plasma”, “1,000” for “150-200”
LC/MS/MS method was used to determine the concentration of compounds in the beagle dogs plasma. The pharmacokinetic parameters after administration were calculated using a non-compartmental model using Phoenix 8.3 software (Pharsight, USA).

[5] = mice, reported by the literature; cited from earlier work

Sequence of hENPP1-ECD-His (P22413 98-925): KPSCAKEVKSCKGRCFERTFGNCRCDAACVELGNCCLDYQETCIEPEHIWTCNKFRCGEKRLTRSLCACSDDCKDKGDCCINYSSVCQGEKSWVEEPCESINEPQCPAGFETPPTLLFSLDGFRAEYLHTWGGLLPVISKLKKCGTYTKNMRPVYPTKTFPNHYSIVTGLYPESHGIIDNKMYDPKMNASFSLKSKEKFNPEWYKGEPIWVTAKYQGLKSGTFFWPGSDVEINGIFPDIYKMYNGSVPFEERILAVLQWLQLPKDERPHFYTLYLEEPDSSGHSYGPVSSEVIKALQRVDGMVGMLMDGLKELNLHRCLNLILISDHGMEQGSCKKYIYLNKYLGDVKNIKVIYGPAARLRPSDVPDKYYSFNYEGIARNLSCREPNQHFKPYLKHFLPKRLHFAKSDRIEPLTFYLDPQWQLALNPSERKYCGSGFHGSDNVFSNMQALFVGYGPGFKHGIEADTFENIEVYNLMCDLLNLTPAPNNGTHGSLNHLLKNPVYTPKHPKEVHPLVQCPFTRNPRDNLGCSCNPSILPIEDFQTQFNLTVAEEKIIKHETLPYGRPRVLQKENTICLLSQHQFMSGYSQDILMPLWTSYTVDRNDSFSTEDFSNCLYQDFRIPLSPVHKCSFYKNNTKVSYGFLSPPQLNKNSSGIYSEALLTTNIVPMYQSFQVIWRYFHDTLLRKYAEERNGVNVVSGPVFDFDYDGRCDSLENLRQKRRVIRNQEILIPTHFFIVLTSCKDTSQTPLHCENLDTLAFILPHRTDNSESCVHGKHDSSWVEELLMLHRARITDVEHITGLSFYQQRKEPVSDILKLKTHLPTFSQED

Row | IC50 [1] [nM] | Structure (SMILES) | other results
1 | 5 | COc1ccc2c(Nc3ccc(CP(=O)(O)O)cn3)ccnc2n1 [Compound 21] | 
2 |  | COc1ccc2c(Oc3ccc(CP(=O)(OCOC(=O)OC(C)C)OCOC(=O)OC(C)C)cc3)ccnc2n1 [Compound 8] | time of conversion of prodrug to parent drug compound 1 in mice plasma [2]: ≤ 5 min
3 | 37 | COc1ccc2c(Oc3ccc(CCP(=O)(O)O)cc3)ccnc2n1 [Compound 23] | 
4 | 18 | COc1ccc2c(Oc3c(F)cc(CP(=O)(O)O)cc3F)ccnc2n1 [Compound 3] | 
5 | 11 | COc1ccc2c(Oc3cc(F)c(CP(=O)(O)O)cc3F)ccnc2n1 [Compound 6] | 
6 |  | COc1ccc2c(Oc3ccc(CP(=O)(OCOC(=O)C(C)(C)C)OCOC(=O)C(C)(C)C)cc3)ccnc2n1 [Compound 7] | time of conversion of prodrug to parent drug compound 1 in mice plasma [2]: ≤ 5 min; Bioavailability Oral BA (% F) [3]: 40 % F; Bioavailability Oral BA (% F) [4]: 21 % F
7 | 2.1 | COc1ccc2c(Nc3ccc(CP(=O)(O)O)nc3)ccnc2n1 [Compound 20] | 
8 | 63 | COc1cc2ncnc(Nc3ccc(CP(=O)(O)O)cc3)c2cc1OC [STF22, reference compound] | 
9 | 0.94 | COc1ccc2c(Nc3ccc(CP(=O)(O)O)cc3)ncnc2n1 [Compound 13] | 
10 | 6.2 | COc1cccc2c(N3CCC(CCP(=O)(O)O)CC3)ncnc12 [STF32, reference compound] | half-life of injection administration T1/2 [5]: 14 min
11 | 11 | COc1ccc2c(Oc3cc(F)c(CP(=O)(O)O)c(F)c3)ccnc2n1 [Compound 5] | 
